Here are results for 8 compounds from ChEMBL document CHEMBL1201862, “PubChem BioAssay data set” (2004).

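Assay format: 96-well plates, 48-hour exposure. GI50 = concentration required for 50% inhibition of growth.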 Activity calls are given as the source filed them. Rule as the data show it: active = GI50 up to about 1.1 µM and inactive = higher. Where only a bound is given, the exact number is not on record here.

Common to all, as to experiment: NCI anticancer screen, dose series, 48 h
Assay [1] has as its system CAKI-1.
For assay [2], the system named is CCRF-CEM.
Assay [3] relates to COLO 205.
The test system of assay [4] is DU-145.
Assay [5] concerns EKVX.
For assay [6], the system named is HCC 2998.
In assay [7] the test system is HCT-15.
Assay [8] has as its system Hs-578T.
In assay [9] the test system is KM12.
Assay [10] relates to M14.
Assay [11] has as its system MDA-MB-231.
Assay [12] has as its system NCI/ADR-RES.
In assay [13] the test system is OVCAR-3.
The subject of assay [14] is SN12C.
Assay [15] deals with SNB-19.
Assay [16] concerns SW-620.
Assay [17] relates to T47D.
In assay [18] the test system is UACC-62.
Assay [19] relates to A498.
Assay [20] has as its system LOX IMVI.

Regarding `O=C(NCc1ccccc1)c1nn[nH]c1O`, the GI50 in assay [1], in assay [2], in [3], in [4], in assay [5] and in [6] was > 100 µM (inactive) in each case. Besides, the GI50 in assay [7] is above 100 µM; in assay [8], > 100 µM (inactive); in assay [9], > 100 µM (inactive); in assay [10], > 100 µM (inactive); in assay [11], > 100 µM (inactive); in assay [12], > 100 µM (inactive). Besides, the GI50 in assay [13], in assay [14], in assay [15], in assay [16], in [17] and in [18] was > 100 µM (inactive) in each case.

`Cc1c(O)c(C)c2c(C)cn(C(=O)C(C)(C)C)c2c1C`: the GI50 in assay [19] was 16.5 µM (inactive); in [2] it was 19.8 µM (inactive); in [3], 16.6 µM (inactive); in [4] it was 20.8 µM (inactive); in assay [5], 20 µM (inactive); in assay [6], 31.3 µM (inactive). Besides, the GI50 in assay [7] was 21.8 µM; in assay [8], 28.4 µM (inactive); in assay [9], 14 µM (inactive); in [20], 35 µM (inactive); in assay [10] it was 16.7 µM (inactive); in assay [11], 15.2 µM (inactive). Moreover, the GI50 in assay [12] is 34.1 µM (inactive); in assay [13] it was 43.4 µM (inactive); in [14], 17.9 µM (inactive); in assay [15] it was 24.8 µM (inactive); in [16], 29.5 µM (inactive); in [17] it was 23.5 µM (inactive). Besides, in [18], the GI50 is 14.7 µM (inactive).

Regarding `COC(=O)C1(Cc2ccccc2)Cc2ccccc2C1=O` (stereo not drawn), the GI50 in [1] was 83 µM (inactive); in assay [2] it was 35.8 µM (inactive); in [3], 49.9 µM (inactive); in assay [4], 83.4 µM (inactive); in assay [5], 30.3 µM (inactive); in [6], 42.3 µM (inactive). The GI50 is 37.2 µM in assay [7]; 61.1 µM (inactive) in assay [8]; 27.7 µM (inactive) in assay [9]; 43.7 µM (inactive) in assay [20]; 32.5 µM (inactive) in [10]; 83.6 µM (inactive) in assay [11]. The GI50 is 25.7 µM (inactive) in assay [12]; 39.3 µM (inactive) in assay [13]; 35.2 µM (inactive) in [14]; 55 µM (inactive) in assay [16]; 43.1 µM (inactive) in assay [17]; 67.3 µM (inactive) in assay [18].

As to `Clc1ccc(-c2noc(CN3CCCCC3)n2)cc1`, the GI50 in [19] was > 100 µM (inactive); in assay [1], > 100 µM (inactive); in assay [2], 77.1 µM (inactive); in assay [3], 90.2 µM (inactive); in assay [4] it was > 100 µM (inactive); in assay [5] it was 54 µM (inactive). In addition, the GI50 in assay [6] was 58.9 µM (inactive); in [7], above 100 µM; in assay [8] it was > 100 µM (inactive); in assay [9] it was > 100 µM (inactive); in assay [10], > 100 µM (inactive); in assay [11] it was > 100 µM (inactive). Also, the GI50 in assay [12] is 46.5 µM (inactive); in [13], 67.9 µM (inactive); in assay [14], > 100 µM (inactive); in [15] it was > 100 µM (inactive); in assay [16], > 100 µM (inactive); in assay [17] it was 47.8 µM (inactive). For the same compound, the GI50 in assay [18] is > 100 µM (inactive).

Consider `O=c1c2ccccc2[nH]c(=S)n1-c1ccc(/N=N/c2cccc3c(O)cccc23)cc1`, for which the GI50 was > 100 µM (inactive) in assay [1]; > 100 µM (inactive) in [2]; 32 µM (inactive) in assay [3]; > 100 µM (inactive) in assay [4]; > 100 µM (inactive) in assay [5]; > 100 µM (inactive) in assay [6]. Besides, the GI50 in [7] was 38.5 µM; in [8], > 100 µM (inactive); in assay [9], > 100 µM (inactive); in assay [20] it was 39 µM (inactive); in assay [10], 50.8 µM (inactive); in assay [11], 53.3 µM (inactive). Also, the GI50 is > 100 µM (inactive) in assay [12]; 62.2 µM (inactive) in assay [13]; > 100 µM (inactive) in assay [14]; > 100 µM (inactive) in [15]; > 100 µM (inactive) in assay [16]; > 100 µM (inactive) in [17]. Moreover, in [18], the GI50 is 24.4 µM (inactive).

With `CC(=O)OC12c3ccccc3C(c3ccccc31)C1C(=O)N(N=C(C)C)C(=O)C12` (stereo not drawn), the GI50 in [1], in assay [2], in [3], in assay [4], in assay [5] and in assay [6] was > 100 µM (inactive) in each case. Moreover, the GI50 was above 100 µM in assay [7]; > 100 µM (inactive) in assay [8]; > 100 µM (inactive) in assay [9]; > 100 µM (inactive) in assay [20]; > 100 µM (inactive) in assay [10]; > 100 µM (inactive) in assay [11]. The GI50 is > 100 µM (inactive) in assay [12]; > 100 µM (inactive) in assay [13]; > 100 µM (inactive) in [14]; > 100 µM (inactive) in assay [15]; > 100 µM (inactive) in [16]; 70.8 µM (inactive) in [17]. Moreover, the GI50 in assay [18] was > 100 µM (inactive).

Consider `COc1cccc(-c2nc(O)c3ccccc3n2)c1OC`, for which the GI50 in assay [19], in assay [1], in assay [2], in assay [3], in assay [4] and in assay [5] was > 100 µM (inactive) in each case. For the same compound, the GI50 in assay [6] was > 100 µM (inactive); in assay [7] it was above 100 µM; in assay [8], > 100 µM (inactive); in assay [9], > 100 µM (inactive); in [10], > 100 µM (inactive); in [11], 74.3 µM (inactive). For the same compound, the GI50 in assay [12], in assay [13], in [14], in assay [15], in [16] and in assay [17] was > 100 µM (inactive) in each case. Also, in [18], the GI50 was 51.8 µM (inactive).

With `O=C(NC1=C(Cl)C(=O)c2ccccc2C1=O)c1ccc(F)cc1`, the GI50 in assay [2] is 0.802 µM (active); in assay [3] it was 2.44 µM (inactive); in [4], 4.68 µM (inactive); in [5] it was 11.8 µM (inactive); in [6], 3.48 µM (inactive); in [7], 0.535 µM. Also, the GI50 in [8] was 8.91 µM (inactive); in assay [9], 3.08 µM (inactive); in [10], 2.6 µM (inactive); in assay [11], 4.4 µM (inactive); in [12], 3.37 µM (inactive); in assay [13], 2.53 µM (inactive). In addition, the GI50 in [14] was 3.41 µM (inactive); in [15], 5.18 µM (inactive); in assay [16], 0.776 µM (active); in assay [17] it was 1.9 µM (inactive); in assay [18] it was 0.279 µM (active).
